By IC50 is commonly meant the concentration at which inhibition is half-maximal. Read a high IC50 as weaker potency in that assay. For orientation: GI50 means the concentration that inhibits growth by half.

Where two headings read alike, the source gives them in different places.

The values that follow come from US20110217300A1, “Quinazolinone Compounds and Methods of Use Thereof” (priority 2007, published 2011).

In one test the target is T1, HsEg5 (Homo sapiens, UniProt P52732).
T1 sequence (P52732 18-359 limits assumed): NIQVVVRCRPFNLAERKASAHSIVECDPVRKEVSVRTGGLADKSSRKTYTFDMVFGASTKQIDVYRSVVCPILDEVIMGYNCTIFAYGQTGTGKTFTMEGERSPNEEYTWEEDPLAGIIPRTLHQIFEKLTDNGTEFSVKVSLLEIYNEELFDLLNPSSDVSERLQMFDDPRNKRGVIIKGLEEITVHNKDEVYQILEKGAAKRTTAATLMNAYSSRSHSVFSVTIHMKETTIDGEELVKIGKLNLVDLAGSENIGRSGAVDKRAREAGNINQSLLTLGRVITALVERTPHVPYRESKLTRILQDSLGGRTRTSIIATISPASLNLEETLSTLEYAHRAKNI
The test can be described thus: Fluorescence detection of HsEg5 ATPase activity (ADP Quest, automated). The format is biochemical. How it is done: Purified HsEg5 motor fragment was activated by mixture with preformed MT polymer (Cytoskeleton, Denver, Colo.) at room temperature for 20 minutes. MT activated ATPase activity was measured using ADP Quest (DiscoverX, Fremont, Calif.) in which a coupled-enzyme assay can translate accumulation of ADP into detectable resorufin signal (FIG. 1A). Fluorescence was measured at λEx=535 nm and λEm=590 nm on a Wallac Victor 2 plate reader (Perkin-Elmer Life Sciences, Boston, Mass.). Reagent A and B from ADP Quest kit were aliquoted and frozen in −20° C. before use. A standard curve was determined using the provided ADP reagent in the reaction buffer that consisted of 50 mM Pipes (pH7.0), 5.0 mM MgCl2, 20 μM paclitaxel and […]. The same buffer was used for Km determination with HsEg5 concentration of 10 nM.
For inhibitor screening, 4 μL of compounds were incubated with 10 μL of MT-activated HsEg5 such that the final concentrations for compound range from 100 μM to 5 nM (1 to 3 serial dilutions, final concentration) and final concentration for HsEg5 is 10 nM. The mixture was incubated at room temperature for 10 minutes with mild shaking. The screening assay contained 0.3% DMSO in all reaction wells. We used wells containing only DMSO as negative controls and wells without ATP as background. Addition of 6 μL ATP (final concentration of 20 μM) initiated the ATP hydrolysis reaction. The 20 μL-reaction was allowed to proceed at room temperature for 10 minutes before addition of 10 μL of reagent A and 20 μL of reagent B. After 20-minute development at room temperature, the fluorescence was measured and data analysis was performed using GraphPad Prism version 3.0 (GraphPad Software, San Diego, Calif.)
For the purpose of high-throughput screening, we automated the fluorescence assay using a Sciclone ALH3000 (Caliper Life Sciences, Hopkinton, Mass.) and Multidrop 384 (Thermo Electron Corp, Waltham, Mass.). First, compound dilution plates for screening (at 10 μM or 1 μM) and ICso determination (10 data points from 100 μM to 5 nM) were made in Corning polypropylene V-bottom 96-well plates. In both cases, the 1st and 7th column contained background (No ATP addition) and negative control (DMSO only). For screening compounds at 10 μM or 1 μM, […] of each compound at 50 μM or 5 μM were used in a 20 μL assay reaction. For IC50 determination, the mother compound plate contained 24 μL of tested compound at stock concentration of 30 mM. 6 μL of each test compound in 30 mM was added to each well in the column 2 and followed by 1:3 serial dilutions in DMSO with the Sciclone ALH3000. 234 μL of assay buffer was then added using a Multidrop 384. Then 4 μL of diluted compounds was used in 20 μL-reaction. The final concentration was a 1:300 dilution of the original stock. Second, a reagent source plate was prepared with three rows designated to MT-activated HsEg5, Reagent A and Reagent B respectively. MTs were diluted with assay buffer and polymerized at room temperature for 10 minutes. Just before use, HsEg5 protein was thawed on ice and activated by addition of MT polymers at room temperature for 20 minutes. HsEg5/MT was then added to Row A of the reagent source plate. The final assay concentration was 10 nM HsEg5 and 500 nM MTs. Reagent A and B were stored at −20° C. and thawed at room temperature followed by transferring to rows B & C of the reagent source plate. Third, ATP substrate plate was prepared by transferring 80 μM ATP solution to each well of a V-shape 96-well plate except the wells in the first row where assay buffer was added instead to have no-ATP blanks. The final concentration for ATP in the assay was 20 μM.
The assay was programmed on Sciclone ALH3000 with the following procedures: 1) Addition of 4 μL compounds to the assay plate, followed by addition of 10 μL of MT-activated HsEg5. […]

A further test deals with A549. The test can be described thus: MTS cell viability assay. The format is cell-based. The note with it: Homo sapiens, A549 non small cell lung, 72 hours, read-out: MTS NCI A549 GI50. How it is done: Two human cancer cell lines were assayed (see, Table 1). Cells were maintained at 37° C. and 5% CO2 in DMEM media (4.5 g/L glucose) supplemented with 10% heat-inactivated FBS, 10 mM L-glutamine, and 10 mM Hepes pH 7.5. Briefly, cells were seeded in 96-well plates as set forth in Table 1 and incubated for 16-24 hours. Candidate compounds were serially diluted in DMSO, further diluted in cell culture media, and then added to cells (final DMSO concentration of 0.33%). Cells were incubated in the presence of candidate compound for 72 hours. […] The Compound Numbers in Table 2 correspond to the numbers listed parenthetically in the Example titles.
For orientation: Formazan colour is commonly taken as a measure of viable cells.

In the next test the test system is NCI-H460. The test can be described thus: MTS cell viability assay. The format is cell-based, human. Conditions: Homo sapiens, NCI-H460, 72 h. How it is done: Cell viability was determined by measuring the activity of dehydrogenase enzymes in metabolically active cells using a tetrazolium compound, MTS. The assay was performed as described in Promega Technical Bulletin No. 169 (CellTiter 96 Aqueous Non-Radioactive Cell Proliferation Assay). Two human cancer cell lines were assayed (see, Table 1). Cells were maintained at 37° C. and 5% CO2 in DMEM media (4.5 g/L glucose) supplemented with 10% heat-inactivated FBS, 10 mM L-glutamine, and 10 mM Hepes pH 7.5. Briefly, cells were seeded in 96-well plates as set forth in Table 1 and incubated for 16-24 hours. Candidate compounds were serially diluted in DMSO, further diluted in cell culture media, and then added to cells (final DMSO concentration of 0.33%). Cells were incubated in the presence of candidate compound for 72 hours. MTS stock solution (MTS 2 gm/L, PMS […] in PBS) was added to the cells (final concentration MTS […] and PMS 7.67 mg/L) and incubated for 4 hours. SDS was added to a final concentration of 1.4% and absorbance at 490 nm was measured within two hours using a plate reader. […] GI50 values were given in Table 2 for the compounds listed. The Compound Numbers in Table 2 correspond to the numbers listed parenthetically in the Example titles. Where multiple measurements were made by different technicians, both values are given.
Cell viability was determined for N-(3-amino-propyl)-3-chloro-N—[(R)-1-(7-chloro-4-oxo-3-phenylamino-3,4-dihydro-quinazolin-2-yl)-but-3-ynyl]-2-fluoro-benzamide (compound I of Table 2). The cell viability assay of Example 105 was used. GI50 was determined using a variety of cell lines. Cells were plated at 100-5000 cells per well. At least 2 replicates were performed. Where multiple measurements were made by different technicians, both values are given.

Setting [1] is: read-out: MTS NCI H460 GI50, NCI-H460 non small cell lung, 72 hours.

`CCC(c1nc2cc(Cl)ccc2c(=O)n1Nc1ccccc1)N(CCCN)C(=O)c1ccc(Br)cc1` (stereo not drawn) [Compound 2, N-(3-Aminopropyl)-N-[1-(3-anilino-7-chloro-4-oxo-3,4-dihydroquinazolin-2-yl)propyl]-4-bromobenzamide] gave an IC50 on HsEg5 of 0.645 µM. For the same compound, the values for the GI50 in the test with A549 and in the test on NCI-H460 (read-out: MTS NCI H460 GI50) were 2.37 µM and 1.75 µM, respectively.

Compound `NCCCN(C(=O)c1ccc(F)c(F)c1)C(Cc1cccs1)c1nc2cc(Cl)ccc2c(=O)n1Nc1ccccc1` (stereo not drawn) [Compound 52, N-(3-Aminopropyl)-N-[1-(3-anilino-7-chloro-4-oxo-3,4-dihydroquinazolin-2-yl)-2-(2-thienyl)ethyl]-3,4-difluorobenzamide] registered an IC50 at HsEg5 of 1.25 µM. For the same compound, the GI50 in the test on A549 (A549, 72 h) turned out to be 4.29 µM; with NCI-H460 (setting [1]), 3.47 µM.

`CSCCC(c1nc2cc(Cl)ccc2c(=O)n1Nc1ccccc1)N(CCCN)C(=O)c1ccc(-n2cccn2)cc1` (stereo not drawn) [Compound 40, N-(3-Aminopropyl)-N-[1-(3-anilino-7-chloro-4-oxo-3,4-dihydroquinazolin-2-yl)-3-(methylthio)propyl]-4-(1H-pyrazol-1-yl)benzamide]: at HsEg5, the IC50 worked out at 2.83 µM. Further, the GI50 in the test with A549 is 6.12 µM; in the test on NCI-H460 (read-out: MTS NCI H460 GI50) it was 8.35 µM.

`CC(C)(C)CC(c1nc2cc(Cl)ccc2c(=O)n1Nc1ccccc1)N(CCCN)C(=O)c1ccc(Br)cc1` (stereo not drawn) [Compound 58, N-(3-Aminopropyl)-N-[1-(3-anilino-7-chloro-4-oxo-3,4-dihydroquinazolin-2-yl)-3,3-dimethylbutyl]-4-bromobenzamide]: it took 3.69 µM to reach half-maximal inhibition against HsEg5 (IC50). The GI50 in the test with A549 is 5.88 µM; with NCI-H460 (read-out: MTS NCI H460 GI50), 5.55 µM.

On to `CCC(c1nc2cc(Cl)ccc2c(=O)n1Nc1ccccc1)N(CCCN)C(=O)c1ccc(I)cc1` (stereo not drawn) [Compound 15, N-(3-Aminopropyl)-N-[1-(3-anilino-7-chloro-4-oxo-3,4-dihydroquinazolin-2-yl)propyl]-4-iodobenzamide], for which, at HsEg5, it took 1.65 µM to reach half-maximal inhibition (IC50). The GI50 in the test with A549 (A549, 72 h) came to 3.08 µM; in the test with NCI-H460 (setting [1]), 2.27 µM.

On HsEg5, `CCC(c1nc2cc(Cl)ccc2c(=O)n1Nc1ccccc1)N(CCCN)C(=O)c1ccc(F)c(C)c1` (stereo not drawn) [Compound 18, N-(3-Aminopropyl)-N-[1-(3-anilino-7-chloro-4-oxo-3,4-dihydroquinazolin-2-yl)propyl]-4-fluoro-3-methylbenzamide] gave an IC50 of 1.25 µM. In addition, the GI50 in the test on A549 (A549, 72 h) was 3.92 µM; in the test on NCI-H460 (setting [1]), 2.5 µM.

As to `Cc1ccc(C(=O)N(CCCN)C(Cc2cccs2)c2nc3cc(Cl)ccc3c(=O)n2Nc2ccccc2)cc1` (stereo not drawn) [Compound 49, N-(3-Aminopropyl)-N-[1-(3-anilino-7-chloro-4-oxo-3,4-dihydroquinazolin-2-yl)-2-(2-thienyl)ethyl]-4-methylbenzamide], the IC50 against HsEg5 was 3.44 µM. For the same compound, the GI50 with A549 (A549, 72 h) turned out to be 4.69 µM; in the test on NCI-H460 (setting [1]) it was 4.41 µM.

As to `CCC(c1nc2cc(Cl)ccc2c(=O)n1Nc1ccccc1)N(CCCN)C(=O)c1ccc2ccccc2n1` (stereo not drawn) [Compound 22, N-(3-Aminopropyl)-N-[1-(3-anilino-7-chloro-4-oxo-3,4-dihydroquinazolin-2-yl)propyl]quinoline-2-carboxamide], the IC50 against HsEg5 came to 1.61 µM. For the same compound, the GI50 with A549 was 2.08 µM; with NCI-H460 (read-out: MTS NCI H460 GI50), 1.17 µM.

In the case of `CC(c1nc2cc(Cl)ccc2c(=O)n1Nc1ccccc1)N(CCCN)C(=O)c1ccc(Cl)c(Cl)c1` (stereo not drawn) [Compound 41, N-(3-Aminopropyl)-N-[1-(3-anilino-7-chloro-4-oxo-3,4-dihydroquinazolin-2-yl)ethyl]-3,4-dichlorobenzamide], the IC50 at HsEg5 came out at 3.37 µM. Moreover, the GI50 with A549 was determined as 5.67 µM; with NCI-H460 (read-out: MTS NCI H460 GI50) it was 6.28 µM.

`CCC(c1nc2cc(Cl)ccc2c(=O)n1Nc1ccccc1)N(CCCN)C(=O)c1ccc(F)c(Cl)c1` (stereo not drawn) [Compound 13, N-(3-Aminopropyl)-N-[1-(3-anilino-7-chloro-4-oxo-3,4-dihydroquinazolin-2-yl)propyl]-3-chloro-4-fluorobenzamide]: the IC50 against HsEg5 was found to be 0.749 µM. Besides, the results for the GI50 in the test on A549 and in the test with NCI-H460 (read-out: MTS NCI H460 GI50) were 3.57 µM and 2.21 µM, respectively.

Compound `CC[C@H](c1nc2cc(Cl)ccc2c(=O)n1Nc1ccccc1)N(CCCN)S(=O)(=O)c1ccsc1` [Compound 34, N-(3-Aminopropyl)-N-[(1R)-1-(3-anilino-7-chloro-4-oxo-3,4-dihydroquinazolin-2-yl)propyl]thiophene-3-sulfonamide] gave an IC50 at HsEg5 of 1.65 µM. Also, the GI50 in the test with A549 is 6.36 µM; in the test on NCI-H460 (read-out: MTS NCI H460 GI50), 5.47 µM.

On to `NCCCN(C(=O)c1ccc(Cl)c(Cl)c1)C(Cc1ccc(O)cc1)c1nc2cc(Cl)ccc2c(=O)n1Nc1ccccc1` (stereo not drawn) [Compound 54, N-(3-Aminopropyl)-N-[1-(3-anilino-7-chloro-4-oxo-3,4-dihydroquinazolin-2-yl)-2-(4-hydroxyphenyl)ethyl]-3,4-dichlorobenzamide], for which, on HsEg5, the IC50 was determined as 2.41 µM. Moreover, the GI50 in the test on A549 (A549, 72 h) was 12.2 µM; in the test with NCI-H460 (setting [1]) it was 11.9 µM.
